Results reported in the supplement of paper PMC6723410.

System: GUMC-403
Assay: viability at highest tested concentration (max response) relative to DMSO (% of DMSO control); higher = less cytotoxic
Conditions: library / dose series: MIPE library, 11-point 1:3 dilution, 48 h
Summary of the method: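 Conditionally reprogrammed GUMC-403 papilloma cells from a patient were plated at 700/well in 5 μL F + Y medium in 1536-well plates and left overnight at 37 °C. A pin tool then added 23 nL of library compounds as an 11-point 1:3 series, for 48 h. CellTiter-Glo luminescence was read on a ViewLux and scaled with vehicle wells set to 100% and empty wells to 0%. Each value gives viability at the highest tested concentration relative to vehicle control.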

SMILES	viability (top concentration 46.1 µM)	viability (top concentration 92.2 µM)
CC(C)c1nc(CN(C)C(=O)N[C@H](C(=O)N[C@@H](Cc2ccccc2)C[C@H](O)[C@H](Cc2ccccc2)NC(=O)OCc2cncs2)C(C)C)cs1	99.7	–
COc1c(N2C[C@@H]3CCCN[C@@H]3C2)c(F)cc2c(=O)c(C(=O)O)cn(C3CC3)c12.Cl.O	133	–
CCC(C)(Oc1ccc(C2(c3ccc(OC(C)(CC)C(=O)O)cc3)CCCCC2)cc1)C(=O)O (configuration not stated)	131	–
CN(CCOc1ccc(CC2SC(=O)NC2=O)cc1)c1ccccn1 (configuration not stated)	118	–
CN(C)/[N+]([O-])=N/Oc1cc(ON[N+](=O)N2CCN(C(=O)c3cc(Cc4n[nH]c(=O)c5ccccc45)ccc3F)CC2)c([N+](=O)[O-])cc1[N+](=O)[O-]	108	–
O=C(CC12CC3CC(CC(C3)C1)C2)Nc1cccc2nc(NCCNCCO)ccc12	69.8	–
O=C1NC(=O)[C@@H](c2cn3c4c(cccc24)CCC3)[C@@H]1c1c[nH]c2ccccc12	102	–
CCN(CC)CCCCNc1ncc2cc(-c3cc(OC)cc(OC)c3)c(NC(=O)NC(C)(C)C)nc2n1	128	–
Cc1cccc(N(C)C(=S)Oc2ccc3ccccc3c2)c1	139	–
OCc1ccc(-c2ccc(-c3ccc(CO)s3)o2)s1	117	–
CCCCN(CCCC)CCC(O)c1cc2c(Cl)cc(Cl)cc2c2cc(C(F)(F)F)ccc12 (configuration not stated)	107	–
OCCC#Cc1nc(-c2ccc(F)cc2)c(-c2ccncc2)n1CCCc1ccccc1	64	–
COc1cccc2c1C(=O)c1c(O)c3c(c(O)c1C2=O)C[C@@](O)(C(=O)CO)C[C@@H]3O[C@H]1C[C@H](N)[C@H](O[C@H]2CCCCO2)[C@H](C)O1	57.9	–
CCOc1ccccc1OCCNC(C)Cc1ccc(OC)c([S+](N)(=O)[O-])c1 (configuration not stated)	135	–
CC(=O)SC[C@@H](C)C(=O)N1CCC[C@H]1C(=O)N[C@@H](Cc1ccccc1)C(=O)O	135	–
N\C1=N\C2=C(N=C[N]2COCCO)C(=O)N1	117	–
Cc1ccc(C(=O)Nc2ccc([S+](=O)([O-])O)c3cc([S+](=O)([O-])O)cc([S+](=O)([O-])O)c23)cc1NC(=O)c1cccc(NC(=O)Nc2cccc(C(=O)Nc3cc(C(=O)Nc4ccc([S+](=O)([O-])O)c5cc([S+](=O)([O-])O)cc([S+](=O)([O-])O)c45)ccc3C)c2)c1	123	–
N#CC(c1ccnc(NCCc2cccnc2)n1)c1nc2ccccc2s1 (configuration not stated)	108	–
Cc1cc(O)c2c3c4c(cc(O)c13)C(C)(C)C(=O)c1c(O)cc(O)c(c1-4)C2=O	104	–
N#Cc1ccc(COC[C@H]2O[C@@H](n3c(NCc4ccc(Cl)c(Cl)c4)nc4c(N)ncnc43)[C@H](O)[C@@H]2O)cc1	89	–
C[Se]CCC(N)C(=O)O (configuration not stated)	–	98
O=C(O)c1ccc(O)c2ncc(N3CCOCC3)cc12	96	–
COc1cc(OC)c(OC)cc1C=O	107	–
CC[C@H](C)C(=O)O[C@H]1C[C@H](O)\C=C2\C=C/[C@H](C)[C@H](CC[C@@H](O)C[C@@H](O)CC(O)=O)[C@@H]12	103	–
CC(C)(C)OC(=O)N[C@H]1CCCCC/C=C\[C@@H]2C[C@@]2(C(=O)N[S+](=O)([O-])C2CC2)NC(=O)[C@@H]2C[C@@H](OC(=O)N3Cc4cccc(F)c4C3)CN2C1=O	138	–
O=C(NCC1CCCCN1)c1cc(OCC(F)(F)F)ccc1OCC(F)(F)F (configuration not stated)	87.2	–

SMILES	viability (top concentration 46.1 µM)	viability (top concentration 92.2 µM)
COc1ccc(CCC(=O)c2c(O)cc(O[C@@H]3O[C@H](CO)[C@@H](O)[C@H](O)[C@H]3O[C@@H]3O[C@@H](C)[C@H](O)[C@@H](O)[C@H]3O)cc2O)cc1O	57.9	–
C[C@@H]1C[C@H]2[C@@H]3\C=C(C)/C4=C/C5=C(C[C@]4(C)[C@H]3[C@@H](O)C[C@]2(C)[C@@]1(O)C(=O)CO)C=N[N]5C6=CC=CC=C6	125	–
O=c1oc2c(O)c(O)cc3c(=O)oc4c(O)c(O)cc1c4c23	143	–
O=C1Nc2ccc(Cl)cc2C(C#CC2CC2)(C(F)(F)F)O1 (configuration not stated)	95.5	–
CCCCc1oc2ccc(NS(C)(=O)=O)cc2c1C(=O)c1ccc(OCCCN(CCCC)CCCC)cc1	126	–
Cc1cccc(C)c1OCC(=O)N[C@@H](Cc1ccccc1)[C@@H](O)C[C@H](Cc1ccccc1)NC(=O)[C@H](C(C)C)N1CCCNC1=O	121	–
Cc1ccc([S+](=O)([O-])OCC(=O)Nc2ccc(C(=O)O)c(O)c2)cc1	91.4	–
CCOC(=O)c1c(CSc2ccccc2)n(C)c2cc(Br)c(O)c(CN(C)C)c12	105	–
OC1=CC(=C(C=C1)\C2=C(O)\C(=O)C3=C(O2)C=C(O)C=C3O)O	93.9	–
COc1ccccc1OCC(O)CN1CCN(CC(=O)Nc2c(C)cccc2C)CC1 (configuration not stated)	130	–
C[C@H](NC(=O)Cc1cc(F)cc(F)c1)C(=O)N[C@@H]1C(=O)N(C)c2ccccc2-c2ccccc21	108	–
CN(N=O)C(=O)N[C@H]1C(O)OC(CO)[C@@H](O)[C@@H]1O (some centres not stated)	113	–
Nc1ncnc2ccccc12	127	–
COc1ccc(C(=O)CC2(O)C(=O)Nc3c(Cl)ccc(Cl)c32)cc1 (configuration not stated)	113	–
NC(=O)c1c(OCc2c(F)cc(Br)cc2F)nsc1NC(=O)NCCCCN1CCCC1	101	–
Cc1c(C)n(Cc2ccc(-c3ccccc3C(=O)O)cc2)c2ccc(C(=O)N[C@@H](C)c3ccc([N+](=O)[O-])cc3)cc12	102	–
Cc1ccc(C(=O)Nc2cccc(C(F)(F)F)c2)cc1-c1ccc2nc(NCCN3CCOCC3)ncc2c1	55.5	–
N[C@@H](C(=O)N[C@H]1[C@H]2SC\C(=C(/N2C1=O)C(O)=O)Cl)C3=CC=CC=C3	122	–
ClC1=CC=C(C=C1)C(C#N)C2=C(Cl)C=C(C=C2Cl)N3\N=C/C(=O)NC3=O (configuration not stated)	125	–
O=c1cc(O)c(Cl)c[nH]1	106	–
COc1cc([C@@H]2c3cc4c(cc3[C@H](O)[C@H]3COC(=O)[C@@H]23)OCO4)cc(OC)c1OC	99.5	–
Cc1cnc(C(=O)O)c[n+]1[O-]	117	–
Cc1cn(-c2cc(NC(=O)c3ccc(C)c(Nc4nccc(-c5cccnc5)n4)c3)cc(C(F)(F)F)c2)cn1	130	–
CC1CCN(c2cc(N3CCN(C)CC3)ccc2NC(=O)c2cc(C#N)c[nH]2)CC1	116	–
O=C1\C=C/C[C@@H]2[C@H]3CCCN4CCC[C@@H](CN12)[C@@H]34	108	–
CCN(CC)CCN1C(=O)\C(=N/C2=CC=CC=C12)CC3=CC=C(OC)C=C3	129	–

SMILES	viability (top concentration 46.1 µM)	viability (top concentration 92.2 µM)
O=C1\C=C(OC2=C(C=CC=C12)C3=CC=CC4=C3SC5=C4C=CC=C5)\N6CCOCC6	70.9	–
COc1ccc([S+](=O)([O-])Nc2cc(-c3c(O)ccc4ccccc34)c(O)c3ccccc23)cc1	117	–
CCCCC(C)(C)[C@H](O)/C=C/[C@H]1[C@H](O)CC(=O)[C@@H]1C/C=C\CCCC(=O)O	104	–
CC(C)(O)C(=O)Nc1ccc([N+](=O)[O-])c(C(F)(F)F)c1	112	–
S=C1N\C=N/C2=C1[NH]C=N2	103	–
C[C@@H]1C[C@H]2[C@@H]3\C=C(C)/C4=C/C5=C(C[C@]4(C)[C@H]3[C@@H](O)C[C@]2(C)[C@@]1(O)C(=O)COC(C)=O)C=N[N]5C6=CC=CC=C6	107	–
Cn1cc(-c2ccc3nnc(C(F)(F)c4ccc5ncccc5c4)n3n2)cn1	110	–
CNc1nc(Nc2ccc(C(=O)N3CCOCC3)cc2OC)ncc1Cl	108	–
CC(C)(Sc1cc(C(C)(C)C)c(O)c(C(C)(C)C)c1)Sc1cc(C(C)(C)C)c(O)c(C(C)(C)C)c1	111	–
Cc1ncc([N+](=O)[O-])n1CC(C)O (configuration not stated)	110	–
O=[S+]([O-])(CC1CS1)c1ccc(Oc2ccccc2)cc1 (configuration not stated)	122	–
CNC1CCC(N(Cc2cccc(-c3ccncc3)c2)C(=O)c2sc3c(F)ccc(F)c3c2Cl)CC1 (configuration not stated)	75.5	–
[NH2][Pt]1([NH2])[O]CC(=O)[O]1	142	–
NC/1=N/[C@]2(COC[C@H]2CS1)C3=CC(=CC=C3F)NC(=O)C4=NC=C(F)C=C4	117	–
C/C=C/C[C@@H](C)C(=O)[C@H]1C(=O)N[C@@H](C(C)C)C(=O)N(C)CC(=O)N(C)[C@@H](CC(C)C)C(=O)N[C@@H](C(C)C)C(=O)N(C)[C@@H](CC(C)C)C(=O)N[C@@H](C)C(=O)N[C@H](C)C(=O)N(C)[C@@H](CC(C)C)C(=O)N(C)[C@@H](CC(C)C)C(=O)N(C)[C@@H](C(C)C)C(=O)N1C	90.6	–
C[C@H]1[C@@H](CC(C[C@H]2O[C@@H]3O[C@]4(C)CC[C@H]5[C@H](C)CC[C@@H]([C@H]2C)[C@@]35OO4)C[S+](=O)([O-])c2ccc(COC(=O)N(C)C)cc2)O[C@@H]2O[C@]3(C)CC[C@H]4[C@H](C)CC[C@@H]1[C@@]24OO3	104	–
C=C1CCC2[C@](C)(CO)C(O)CC[C@]2(C)C1C/C=C1/C(=O)OCC1O (some centres not stated)	–	106
NC(=O)c1ccc(-c2nc(-c3ccc4c(c3)OCCO4)c(-c3ccccn3)[nH]2)cc1	131	–
C1Cc2[nH]nc(-c3nn[nH]n3)c2C1	118	–
O=C1CC[C@@]2(O)[C@H]3Cc4ccc(O)c5c4[C@@]2(CCN3CC2CC2)[C@H]1O5	137	–
C=CC(=O)N1CCC[C@@H](n2nc(-c3ccc(Oc4ccccc4)cc3)c3c(N)ncnc32)C1	83.3	–
O=C(CCCCCCC(=O)Nc1ccc([C@H]2O[C@@H](CSc3nc(-c4ccccc4)c(-c4ccccc4)o3)C[C@@H](c3ccc(CO)cc3)O2)cc1)NO	115	–
O=c1oc2cc(O)ccc2s1	102	–
CC1=NN(c2ccc(C)c(C)c2)C(=O)/C1=N/Nc1cccc(-c2cccc(C(=O)O)c2)c1O	101	–
CC[C@@H](C(N)=O)N1CCCC1=O	6.2	–
